US12617771B2, “Diphenylpyrazole compound, and preparation method therefor and application thereof” (NORTHWEST A&F UNIVERSITY, priority 2021, dated 2026)
Values joined by “and” are separate entries in the source; they are usually repeats but may differ in a detail not shown here. Equal values may be shown once.

What was measured:
Type in all cases: biochemical
[1] = target: Plutella xylostella GSTs; test: Inhibition of total GSTs enzyme of Plutella xylostella (CDNB method)
Description: (§1) Experiment: About 50 mg of larvae/nymphs of nine major pests such as Plutella xylostella, Mythimna separata, Pyrausta nubilalis, Chilo suppressalis, Nilaparvata lugens, Spodoptera frugiperda, Helicoverpa armigera, Carposina sasakii, Spodoptera litura were taken, grounded in a mortar pre-cooled at −80° C., and then 1 mL of 100 mM sodium phosphate buffer (1 mM EDTA, pH 7.2) was added and fully homogenized. The homogenate was transferred to a 1.5 mL centrifuge tube at 4° C., and centrifuged at 14,000 g for 30 minutes, and the supernatant was transferred to a new centrifuge tube as the GSTs total enzyme. The protein concentrations of the above total enzymes were determined using the BCA method.
(§2) 100 μL of PBS buffer (100 mM, pH 7.2) containing 1 mM GSH was taken and placed in a 96-well plate, 5 μg of insect total GSTs enzymes and an appropriate concentration of compounds PXG1-PXG29 (29 compounds) of the present invention were added to each well, after uniformly mixing, and allowed to stand at 30° C. for 10 min. Then 100 μL of PBS buffer (100 mM, pH 7.2) containing 1 mM CDNB was added to each well. Immediately after mixing, the mixture was placed in a microplate reader to measure the absorbance at a wavelength of 340 nm (A 340) once every 1 min, the measurement was carried out continuously for 5 min, the light absorption values of each measuring point were recorded and the inhibition rate in vitro of the compounds with different concentrations against insects total GSTs enzymes were calculated. Each group of assays was repeated three times, and total GSTs enzymes inactivated at 100° C. for 5 min were used as negative controls, and GTX was used as positive controls. GraphPad Prism 5 software was used for analysis and calculation of IC50. Relative inhibition was calculated using the following formula:
(§3) [formula] • wherein, A340 is the change of A340 within 5 minutes for the control group, and A340t is the change of A340 within 5 minutes for the experimental group.

[2] = target: Carposina sasakii GSTs; test: Inhibition of total GSTs enzyme of Carposina sasakii (CDNB method)
Description: as §1, §2, §3

[3] = target: Spodoptera litura GSTs; test: Inhibition of total GSTs enzyme of Spodoptera litura (CDNB method)
Description: as §1, §2, §3

[4] = target: Mythimna separata GSTs; test: Inhibition of total GSTs enzyme of Mythimna separata (CDNB method)
Description: as §1, §2, §3

[5] = target: Pyrausta nubilalis GSTs; test: Inhibition of total GSTs enzyme of Pyrausta nubilalis (CDNB method)
Description: as §1, §2, §3

[6] = target: Chilo suppressalis GSTs; test: Inhibition of total GSTs enzyme of Chilo suppressalis (CDNB method)
Description: as §1, §2, §3

[7] = target: Nilaparvata lugens GSTs; test: Inhibition of total GSTs enzyme of Nilaparvata lugens (CDNB method)
Description: as §1, §2, §3

[8] = target: Spodoptera frugiperda GSTs; test: Inhibition of total GSTs enzyme of Spodoptera frugiperda (CDNB method)
Description: as §1, §2, §3

[9] = target: Helicoverpa armigera GSTs; test: Inhibition of total GSTs enzyme of Helicoverpa armigera (CDNB method)
Description: as §1, §2, §3

[10] = target: PxGSTδ1 (Plutella xylostella, UniProt D7URW9); test: Inhibition of PxGSTδ1 recombinant protein; settings: read-out: 100 μM Inhibition rate %
Description: (§4) Experiment: 100 μL of PBS buffer (100 mM, pH 7.2) was taken and added to a 96-well plate, 1 μg of PxGSTs recombinant protein and an appropriate concentration of the compounds PXG1-PXG29 of the present invention were added to each well, after uniformly mixing, and allowed to stand at 30° C. for 10 min. Then 100 μL of PBS buffer (100 mM, pH 7.2) containing 1 mM CDNB and 1 mM GSH was successively added to each well. Immediately after mixing, the mixture was placed in a microplate reader to measure the absorbance at a wavelength of 340 nm (A340) once every 1 min, the measurement was continued for 5 min, the light absorption values of each measuring point were recorded and the inhibition rate in vitro of the compounds PXG1-PXG29 of the present invention with different concentrations against PxGSTs recombinant protein were calculated. Each group of assays was repeated three times, and PxGSTs recombinant protein inactivated at 100° C. for 5 min was used as negative control, and GTX was used as positive control. GraphPad Prism 5 software was used for analysis and calculation of IC50. Relative inhibition was calculated using the following formula:
(§5) [formula] • wherein, A340c is the change of A340 […] the control group, an A340t is the change of A340 within 5 minutes for the experimental group.

[11] = target: PxGSTσ1 (Plutella xylostella, UniProt Q6F436); test: Inhibition of PxGSTσ1 recombinant protein; settings: read-out: 100 μM Inhibition rate %
Description: as §4, §5

[12] = target: PxGSTσ2 (Plutella xylostella, UniProt Q6F443); test: Inhibition of PxGSTσ2 recombinant protein; settings: read-out: 100 μM Inhibition rate %
Description: as §4, §5

[13] = target: PxGSTε3 (Plutella xylostella, UniProt O77409); test: Inhibition of PxGSTε3 recombinant protein; settings: read-out: 100 μM Inhibition rate %
Description: as §4, §5

Chain of PxGSTσ1 (Q6F436 entry or part of it): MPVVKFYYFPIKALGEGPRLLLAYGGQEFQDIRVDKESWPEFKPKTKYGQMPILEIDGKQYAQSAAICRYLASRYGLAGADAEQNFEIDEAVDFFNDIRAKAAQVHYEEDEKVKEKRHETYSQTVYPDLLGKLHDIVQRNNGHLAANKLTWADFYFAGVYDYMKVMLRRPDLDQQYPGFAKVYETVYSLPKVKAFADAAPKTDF
Chain of PxGSTδ1 (D7URW9 entry or part of it): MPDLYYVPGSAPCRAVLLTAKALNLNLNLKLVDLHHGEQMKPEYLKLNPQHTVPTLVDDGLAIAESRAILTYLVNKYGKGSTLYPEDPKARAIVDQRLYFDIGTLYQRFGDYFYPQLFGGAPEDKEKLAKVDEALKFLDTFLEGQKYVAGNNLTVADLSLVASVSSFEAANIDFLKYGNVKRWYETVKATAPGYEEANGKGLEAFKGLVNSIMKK
Chain of PxGSTσ2 (Q6F443 entry or part of it): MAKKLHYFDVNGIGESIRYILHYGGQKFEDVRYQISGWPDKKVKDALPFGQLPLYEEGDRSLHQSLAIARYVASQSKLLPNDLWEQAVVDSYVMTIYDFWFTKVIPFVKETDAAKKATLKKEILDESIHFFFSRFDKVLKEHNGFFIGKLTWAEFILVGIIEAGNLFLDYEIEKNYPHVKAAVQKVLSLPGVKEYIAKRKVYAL
Chain of PxGSTε3 (O77409 entry or part of it): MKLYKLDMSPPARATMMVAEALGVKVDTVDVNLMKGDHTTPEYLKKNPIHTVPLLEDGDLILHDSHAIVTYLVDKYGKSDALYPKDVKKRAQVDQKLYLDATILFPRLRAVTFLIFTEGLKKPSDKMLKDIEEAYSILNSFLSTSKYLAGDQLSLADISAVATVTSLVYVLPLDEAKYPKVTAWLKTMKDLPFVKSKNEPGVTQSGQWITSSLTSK

Compound	IC50 [1] [µM]	100 μM Inhibition rate % [1] [%]	IC50 [2] [µM]	100 μM Inhibition rate % [2] [%]	IC50 [3] [µM]	100 μM Inhibition rate % [3] [%]	IC50 [4] [µM]	100 μM Inhibition rate % [4] [%]	IC50 [5] [µM]	100 μM Inhibition rate % [5] [%]	IC50 [6] [µM]	100 μM Inhibition rate % [6] [%]	100 μM Inhibition rate % [7] [%]	100 μM Inhibition rate % [8] [%]	IC50 [9]	100 μM Inhibition rate % [9] [%]	inhibition at 100 µM [10] [%]	inhibition at 100 µM [11] [%]	inhibition at 100 µM [12] [%]	inhibition at 100 µM [13] [%]	further results
COc1ccccc1OCC(=O)NNC(=O)c1cc(-c2ccccc2)nn1-c1ccccc1 [PXG18, N′-(1,3-diphenyl-1H-pyrazol-5-yl-carbonyl)-2-(2-methoxyphenoxy)acetohydrazide]	> 100	32.94	> 100	13.69	> 100	7.95	> 100	−2.16	> 100	23.84	> 100	23.00	45.31	28.67	> 100 µM	−3.02	82	31.7	13.5	-2.47	IC50 [7]: > 100 µM; IC50 [8]: > 100 µM
O=C(NNC(=O)c1cc(-c2ccccc2)nn1-c1ccccc1)c1ccccc1 [PXG11, N′-(1,3-diphenyl-1H-pyrazol-5-yl-carbonyl) benzohydrazine]	> 100	22.90	> 100	76.09	> 100	24.52	> 100	31.76	> 100	23.84	> 100	54.79	8.16	20.95	> 100 µM	8.09	35.3	60.7	22.6	-7.28	IC50 [7]: > 100 µM; IC50 [8]: > 100 µM
CN(C)S(=O)(=O)c1cccc(C(=O)NNC(=O)c2cc(-c3ccccc3)nn2-c2ccccc2)c1 [PXG9, 3-[N′-(1,3-diphenyl-1H-pyrazol-5-yl-carbonyl) hydrazinocarbonyl]-N,N-dimethylphenyl-1-sulfonamide]	> 100	3.94	> 100	12.55	> 100	12.58	> 100	2.72	> 100	5.71	> 100	34.79	−10.48	5.56	> 100 µM	5.25	30.4	28.6	31.4	-3.88	IC50 [7]: > 100 µM; IC50 [8]: > 100 µM
O=C(COc1ccccc1)NNC(=O)c1cc(-c2ccccc2)nn1-c1ccccc1 [PXG5, N′-(1,3-diphenyl-1H-pyrazol-5-yl-carbonyl)-2-phenoxyacetohydrazide]	> 100	11.58	> 100	23.22	> 100	37.80	> 100	47.24	> 100	14.08	> 100	28.17	23.90	31.42	> 100 µM	9.57	81.7	35.6	24.5	-2.97	IC50 [7]: > 100 µM; IC50 [8]: > 100 µM
COc1cc(C(=O)NNC(=O)c2cc(-c3ccccc3)nn2-c2ccccc2)cc(OC)c1OC [PXG4, N′-(1,3-diphenyl-1H-pyrazol-5-yl-carbonyl)-3,4,5-trimethoxybenzohydrazine]	> 100	−10.64	> 100	2.34	> 100	−17.52	> 100	0.00	> 100	−7.23	> 100	−10.90	−5.99	−7.57	> 100 µM	4.07	18.4	43.6	21.6	8.88	IC50 [7]: > 100 µM; IC50 [8]: > 100 µM

The next lines start with results.

IC50 [1] [µM]	100 μM Inhibition rate % [1] [%]	IC50 [2] [µM]	100 μM Inhibition rate % [2] [%]	IC50 [3] [µM]	100 μM Inhibition rate % [3] [%]	IC50 [4] [µM]	100 μM Inhibition rate % [4] [%]	IC50 [5] [µM]	100 μM Inhibition rate % [5] [%]	IC50 [6] [µM]	100 μM Inhibition rate % [6] [%]	100 μM Inhibition rate % [7] [%]	100 μM Inhibition rate % [8] [%]	IC50 [9]	100 μM Inhibition rate % [9] [%]	inhibition at 100 µM [10] [%]	inhibition at 100 µM [11] [%]	inhibition at 100 µM [12] [%]	inhibition at 100 µM [13] [%]	Compound	further results
> 100	25.47	> 100	23.07	> 100	17.09	> 100	42.96	> 100	17.35	> 100	26.63	35.05	35.46	> 100 µM	20.74	72.4	36.1	27.6	-1.11	O=C(CNc1ccccc1)NNC(=O)c1cc(-c2ccccc2)nn1-c1ccccc1 [PXG3, N′-(1,3-diphenyl-1H-pyrazol-5-yl-carbonyl)-2-(phenylamino) acetohydrazide]	IC50 [7]: > 100 µM; IC50 [8]: > 100 µM
> 100	23.03	> 100	19.42	> 100	31.70	> 100	47.16	> 100	15.64	> 100	22.03	10.00	19.64	> 100 µM	6.30	58.7	45.9	32.5	5.57	N#Cc1ccc(OCC(=O)NNC(=O)c2cc(-c3ccccc3)nn2-c2ccccc2)cc1 [PXG19, 2-(4-cyanophenoxy)-N′-(1,3-diphenyl-1H-pyrazol-5-yl-carbonyl)acetohydrazide]	IC50 [7]: > 100 µM; IC50 [8]: > 100 µM
12.9	73.72	6.87	95.39	15.2	85.61	16.3	87.20	23.5	86.35	–	99.97	95.14	95.20	14.4 µM and 14.1 µM	96.30	66.5	67.3	84.8	50.7	CCCCCCSC[C@H](NC(=O)CC[C@H](N)C(=O)O)C(=O)NCC(=O)O [GTX, S-Hexylglutathione, reference compound]	–
